Each block holds one compound with its values, some of them ahead of it.
Assays:
[1] = target: Lysine-specific histone demethylase 1A (Homo sapiens, UniProt O60341); test: Inhibition of recombinant human LSD1 expressed in Escherichia coli using biotinylated H3K4me as substrate by TR-FRET assay
[2] = Toxicity in non-irradiated mouse injected with APL blast cells assessed as effect on body weight at 60 mg/kg, po administered 5 days per week for 2 weeks starting after 10 days post-injection measured after 1st week of treatment; assay type: organism-based; conditions: in vivo
THP-1 [3] = test: Anticlonogenic activity against human THP1 cells assessed as inhibition of colony formation at 50 nM measured after 13 days relative to control; assay type: functional; conditions: THP-1, 312 h
[4] = Toxicity in non-irradiated mouse injected with APL blast cells assessed as effect on body weight at 15 and 30 mg/kg, po administered 5 days per week for 2 weeks starting after 10 days post-injection; assay type: organism-based; conditions: in vivo
Mus musculus = test: Antitumor activity against mouse APL blast injected in non-irradiated po dosed mouse assessed as increase in mouse survival administered 5 days per week for 2 weeks starting after 10 days post-injection by Kaplan-Meier plot analysis relative to control; assay type: functional, organism-based
[5] = Toxicity in sub-lethal irradiated C57BL6JCRL mouse xenografted with human MLL-AF9 cells assessed as effect on body weight at 15 to 30 mg/kg, po administered 5 days per week for 2 weeks starting after 10 days post-injection; assay type: organism-based; conditions: in vivo
[6] = Cmax in CD-1 mouse at 15 mg/kg, po administered as single dose; assay type: ADME, organism-based; parameters: dose 15 mg/kg, route oral; conditions: in vivo
[7] = AUC (0 to infinity) in CD-1 mouse at 5 mg/kg, iv administered as single dose; assay type: ADME, organism-based; parameters: dose 5 mg/kg, time infinity, route intravenous; conditions: in vivo
[8] = AUC (0 to infinity) in CD-1 mouse at 15 mg/kg, po administered as single dose; assay type: ADME, organism-based; parameters: dose 15 mg/kg, time infinity, route oral; conditions: in vivo
[9] = Clearance in CD-1 mouse at 5 mg/kg, iv administered as single dose; assay type: ADME, organism-based; conditions: in vivo
[10] = Antitumor activity against mouse APL blast injected in non-irradiated mouse assessed as increase in mouse survival at 15 mg/kg, po administered 5 days per week for 2 weeks starting after 10 days post-injection by Kaplan-Meier plot analysis relative to control; assay type: functional
[11] = Oral bioavailability in CD-1 mouse at 15 mg/kg administered as single dose; assay type: ADME, organism-based; conditions: in vivo
THP-1 [12] = test: Anticlonogenic activity against human THP1 cells assessed as inhibition of colony formation at 500 nM measured after 13 days relative to control; assay type: functional; conditions: THP-1, 312 h
[13] = Cmax in CD-1 mouse at 5 mg/kg, iv administered as single dose; assay type: ADME, organism-based; parameters: dose 5 mg/kg, route intravenous; conditions: in vivo
[14] = Half life in CD-1 mouse at 5 mg/kg, iv administered as single dose; assay type: ADME, organism-based; conditions: in vivo
[15] = Volume of distribution at steady state in CD-1 mouse at 5 mg/kg, iv administered as single dose; assay type: ADME, organism-based; conditions: in vivo, read-out: Vdss
[16] = Antitumor activity against human MLL-AF9 xenografted in sub-lethal irradiated C57BL6JCRL mouse assessed as increase in mouse survival at 30 mg/kg, po administered 5 days per week for 2 weeks starting after 10 days post-injection by Kaplan-Meier plot analysis relative to control; assay type: functional
[17] = Antitumor activity against mouse APL blast injected in non-irradiated mouse assessed as increase in mouse survival at 30 mg/kg, po administered 5 days per week for 2 weeks starting after 10 days post-injection by Kaplan-Meier plot analysis relative to control; assay type: functional
[18] = Antitumor activity against human MLL-AF9 xenografted in sub-lethal irradiated C57BL6JCRL mouse assessed as increase in mouse survival at 15 mg/kg, po administered 5 days per week for 2 weeks starting after 10 days post-injection by Kaplan-Meier plot analysis relative to control; assay type: functional
[19] = Tmax in CD-1 mouse at 15 mg/kg, po administered as single dose; assay type: ADME, organism-based; conditions: in vivo

Compound: Cn1c(-c2nnc(-c3ccccc3)o2)cc2sccc21
IC50 [1]: > 100 µM

Compound: Cn1c(-c2nc3ccccc3[nH]2)cc2sccc21
IC50 [1]: > 100 µM

Compound: Cn1c(-c2nc(C3CCC3)cn2CCCc2ccc(OC3CCNCC3)cc2)cc2sccc21
Activity [2]: Toxic
inhibition at 0.05 µM (THP-1 [3]): 38.8%
Activity [4]: Non-Toxic
Activity (Mus musculus): Dose-dependent effect
Activity [5]: Non-Toxic
Cmax [6]: 320 nM
AUC(0-inf) [7]: 4.2 µM·h
AUC(0-inf) [8]: 2.03 µM·h
clearance [9]: 37.5 mL/min/kg
Activity [10]: 20%
bioavailability [11]: 17%
inhibition at 0.5 µM (THP-1 [12]): 72.3%
Cmax [13]: 2540 nM
half-life [14]: 6 h
Vd [15]: 10.2 L/kg
Activity [16]: 70%
Activity [17]: 55%
Activity [18]: 29%
Tmax [19]: 0.417 h

Compound: Cn1c(-c2nc(C3CCC3)cn2CCCc2ccc(OC3CCCNCC3)cc2)cc2sccc21 (stereo not given)
inhibition at 0.05 µM (THP-1 [3]): 40.9%
inhibition at 0.5 µM (THP-1 [12]): 74.2%

Compound: Cn1c(-c2nc(C3CCC3)cn2CCOc2ccc(OC3CCNCC3)cc2)cc2sccc21
inhibition at 0.05 µM (THP-1 [3]): 33%
inhibition at 0.5 µM (THP-1 [12]): 73.3%

Compound: CCc1cn(CCOc2ccc(OC3CCNCC3)cc2)c(-c2cc3sccc3n2C)n1
inhibition at 0.05 µM (THP-1 [3]): 27.6%
inhibition at 0.5 µM (THP-1 [12]): 72.3%

Compound: CCc1cn(CCCc2ccc(OC3CCNCC3)cc2)c(-c2cc3sccc3n2C)n1
inhibition at 0.05 µM (THP-1 [3]): 33.3%
inhibition at 0.5 µM (THP-1 [12]): 61.4%

Compound: CCCc1cn(CCCc2ccc(OC3CCCNCC3)cc2)c(-c2cc3sccc3n2C)n1 (stereo not given)
inhibition at 0.05 µM (THP-1 [3]): 46.6%
inhibition at 0.5 µM (THP-1 [12]): 64.2%

Second part, the compound after the results:

IC50 [1]: > 100 µM
Compound: Cn1c(C(=O)Cc2ccccc2)cc2sccc21

IC50 [1]: > 100 µM
Compound: Cn1c(-c2nnc(-c3ccccc3)[nH]2)cc2sccc21

IC50 [1]: > 100 µM
Compound: Cn1c(-c2ncc(-c3ccccc3)o2)cc2sccc21

IC50 [1]: > 100 µM
Compound: Cn1c(NC(=O)c2ccccc2)cc2sccc21

— ChEMBL document CHEMBL4613290, “Discovery of Reversible Inhibitors of KDM1A Efficacious in Acute Myeloid Leukemia Models” (ACS Med Chem Lett, 2020)
